# In US8808979B2, “Methods related to liver enzyme induction as a predisposition for liver toxicity and diseases or disorders associated therewith” (priority 2008, dated 2014):
# What was measured:
# male rats = test: Plasma metabolite profiling (GC-MS/LC-MS), markers for liver enzyme induction in male rats, 28-day gavage study; type: in vivo, rat; settings: high dose
# Experimental: (§1) A group of each 5 male and female rats was dosed once daily with the indicated compounds (see tables below) at 10 and 100 mg/kg body weight per gavage over 28 days. Additional groups of each 5 male and female animals served as controls. Before starting the treatment period, animals, which were 62-64 days old when supplied, were acclimatized to the housing and environmental conditions for 7 days. All animals of the animal population were kept under the same constant temperature (20-24±3° C.) and the same constant humidity (30-70%). Each animal of the animal population was kept in a separate cage. The animals of the animal population are fed ad libitum. The food to be used was be essentially free of chemical or microbial contaminants. Drinking water was also offered ad libitum. Accordingly, the water was be free of chemical and microbial contaminants as laid down in the European Drinking Water Directive 98/83/EG. The illumination period was 12 hours light followed by 12 hours darkness (12 hours light, from 6:00 to 18:00, and 12 hours darkness, from 18:00 to 6:00).
# (§2) In the morning of day 7, 14, and 28, blood was taken from the retroorbital venous plexus from fasted anaesthetized animals. From each animal, 1 ml of blood was collected with EDTA as anticoagulant. The samples were be centrifuged for generation of plasma. All plasma samples were covered with a N2 atmosphere and then stored at—80° C. until analysis.
# (§3) For mass spectrometry-based metabolite profiling analyses plasma samples were extracted and a polar and a non-polar fraction was obtained. For GC-MS analysis, the non-polar fraction was treated with methanol under acidic conditions to yield the fatty acid methyl esters. Both fractions were further derivatised with O-methyl-hydroxyamine hydrochloride and pyridine to convert oxo-groups to O-methyloximes and subsequently with a silylating agent before analysis. In LC-MS analysis, both fractions were reconstituted in appropriate solvent mixtures. HPLC was performed by gradient elution on reversed phase separation columns. For mass spectrometric detection metanomics proprietary technology was applied which allows target and high sensitivity MRM (Multiple Reaction Monitoring) profiling in parallel to a full screen analysis.
# (§4) Following comprehensive analytical validation steps, the data for each analyte were normalized against data from pool samples. These samples were run in parallel through the whole process to account for process variability. The significance of treatment group values specific for sex, dose group and metabolite was determined by comparing means of the treated groups to the means of the respective untreated control groups using Student's t-test. Normalized treatment group values and their significance were fed into a database for further statistics and data mining processes.
# (§5) The changes of the group of plasma metabolites being indicative for liver enzyme induction after treatment of the rats are shown in the following tables: […]
# female rats = test: Plasma metabolite profiling (GC-MS/LC-MS), markers for liver enzyme induction in female rats, 28-day gavage study; type: in vivo, rat; settings: high dose
# Experimental: as §1, §2, §3, §4, §5
structure (smiles),measurement,setting,value
Clc1cc(Cl)c(Cl)c(Cl)c1Cl [Pentachlorobenzene],"1,2-Dioleoyl-sn-glycero-3-phosphatidyl-L-serine, change of plasma metabolite, mh7","male rats; day 7, relative to controls",1.27
same,"Behenic acid (C22:0), change of plasma metabolite, mh7","male rats; day 7, relative to controls",1.43
same,"Cholesterol, change of plasma metabolite, mh7","male rats; day 7, relative to controls",1.31
same,"Eicosapentanoic acid, change of plasma metabolite, mh7","male rats; day 7, relative to controls",1.4
same,"Galactose, lipid fraction, change of plasma metabolite, mh7","male rats; day 7, relative to controls",1.37
same,"Lignoceric acid (C24:0), change of plasma metabolite, mh7","male rats; day 7, relative to controls",1.32
same,"Nervonic acid (C24:1), change of plasma metabolite, mh7","male rats; day 7, relative to controls",1.30
same,"Phosphatidylcholine (C18:0/C18:2), change of plasma metabolite, mh7","male rats; day 7, relative to controls",1.01
same,"Phosphatidylcholine (C18:0/C22:6), change of plasma metabolite, mh7","male rats; day 7, relative to controls",1.12
same,"Sphingolipids (3- and 5-Methoxysphingosine), change of plasma metabolite, mh7","male rats; day 7, relative to controls",1.42
same,"Stearic acid (C18:0), change of plasma metabolite, mh7","male rats; day 7, relative to controls",1.34
same,"Threonic acid, change of plasma metabolite, mh7","male rats; day 7, relative to controls",3.06
same,"1,2-Dioleoyl-sn-glycero-3-phosphatidyl-L-serine, change of plasma metabolite, mh14","male rats; day 14, relative to controls",1.35
same,"Behenic acid (C22:0), change of plasma metabolite, mh14","male rats; day 14, relative to controls",1.26
same,"Cholesterol, change of plasma metabolite, mh14","male rats; day 14, relative to controls",1.46
same,"Eicosapentanoic acid, change of plasma metabolite, mh14","male rats; day 14, relative to controls",1.4
same,"Galactose, lipid fraction, change of plasma metabolite, mh14","male rats; day 14, relative to controls",1.37
same,"Lignoceric acid (C24:0), change of plasma metabolite, mh14","male rats; day 14, relative to controls",1.16
same,"Nervonic acid (C24:1), change of plasma metabolite, mh14","male rats; day 14, relative to controls",1.78
same,"Phosphatidylcholine (C18:0/C18:2), change of plasma metabolite, mh14","male rats; day 14, relative to controls",1.11
same,"Phosphatidylcholine (C18:0/C22:6), change of plasma metabolite, mh14","male rats; day 14, relative to controls",1.15
same,"Sphingolipids (3- and 5-Methoxysphingosine), change of plasma metabolite, mh14","male rats; day 14, relative to controls",1.79
same,"Stearic acid (C18:0), change of plasma metabolite, mh14","male rats; day 14, relative to controls",1.25
same,"Threonic acid, change of plasma metabolite, mh14","male rats; day 14, relative to controls",2.98
same,"1,2-Dioleoyl-sn-glycero-3-phosphatidyl-L-serine, change of plasma metabolite, mh28","male rats; day 28, relative to controls",1.27
same,"Behenic acid (C22:0), change of plasma metabolite, mh28","male rats; day 28, relative to controls",1.34
same,"Cholesterol, change of plasma metabolite, mh28","male rats; day 28, relative to controls",1.04
same,"Eicosapentanoic acid, change of plasma metabolite, mh28","male rats; day 28, relative to controls",1.4
same,"Galactose, lipid fraction, change of plasma metabolite, mh28","male rats; day 28, relative to controls",1.51
same,"Lignoceric acid (C24:0), change of plasma metabolite, mh28","male rats; day 28, relative to controls",1.21
same,"Nervonic acid (C24:1), change of plasma metabolite, mh28","male rats; day 28, relative to controls",1.17
same,"Phosphatidylcholine (C18:0/C18:2), change of plasma metabolite, mh28","male rats; day 28, relative to controls",1.10
same,"Phosphatidylcholine (C18:0/C22:6), change of plasma metabolite, mh28","male rats; day 28, relative to controls",1.06
same,"Sphingolipids (3- and 5-Methoxysphingosine), change of plasma metabolite, mh28","male rats; day 28, relative to controls",1.46
same,"Stearic acid (C18:0), change of plasma metabolite, mh28","male rats; day 28, relative to controls",1.05
same,"Threonic acid, change of plasma metabolite, mh28","male rats; day 28, relative to controls",3.48
same,"1,2-Dioleoyl-sn-glycero-3-phosphatidyl-L-serine, change of plasma metabolite, fh7","female rats; day 7, relative to controls",1.28
same,"Arachidonic acid (C20:cis-[5,8,11,14]4), change of plasma metabolite, fh7","female rats; day 7, relative to controls",1.27
same,"Behenic acid (C22:0), change of plasma metabolite, fh7","female rats; day 7, relative to controls",1.30
same,"Cholesterol, change of plasma metabolite, fh7","female rats; day 7, relative to controls",1.23
same,"Docosahexaenoic acid (C22:cis[4,7,10,13,16,19]6), change of plasma metabolite, fh7","female rats; day 7, relative to controls",1.79
same,"Dodecanol, change of plasma metabolite, fh7","female rats; day 7, relative to controls",1.17
same,"Eicosanoic acid (C20:0), change of plasma metabolite, fh7","female rats; day 7, relative to controls",1.13
same,"Galactose, lipid fraction, change of plasma metabolite, fh7","female rats; day 7, relative to controls",1.10
same,"Glycerol, lipid fraction, change of plasma metabolite, fh7","female rats; day 7, relative to controls",2.38
same,"Glycerolphosphate, lipid fraction, change of plasma metabolite, fh7","female rats; day 7, relative to controls",1.27
same,"Heptadecanoic acid (C17:0), change of plasma metabolite, fh7","female rats; day 7, relative to controls",1.32
same,"Lignoceric acid (C24:0), change of plasma metabolite, fh7","female rats; day 7, relative to controls",1.39
same,"Linoleic acid (C18:cis[9,12]2), change of plasma metabolite, fh7","female rats; day 7, relative to controls",2.11
same,"Nervonic acid (C24:1), change of plasma metabolite, fh7","female rats; day 7, relative to controls",0.97
same,"Palmitic acid (C16:0), change of plasma metabolite, fh7","female rats; day 7, relative to controls",1.59
same,"Phosphatidylcholine (C18:0/C18:2), change of plasma metabolite, fh7","female rats; day 7, relative to controls",1.14
same,"Sphingolipids (3- and 5-Methoxysphingosine), change of plasma metabolite, fh7","female rats; day 7, relative to controls",1.43
same,"Stearic acid (C18:0), change of plasma metabolite, fh7","female rats; day 7, relative to controls",1.30
same,"Threonic acid, change of plasma metabolite, fh7","female rats; day 7, relative to controls",3.67
same,"Tricosanoic acid (C23:0), change of plasma metabolite, fh7","female rats; day 7, relative to controls",1.18
same,"gamma-Linolenic acid (C18:cis[6,9,12]3), change of plasma metabolite, fh7","female rats; day 7, relative to controls",1.71
same,"myo-Inositol-2-monophosphate, lipid fraction, change of plasma metabolite, fh7","female rats; day 7, relative to controls",1.81
same,"1,2-Dioleoyl-sn-glycero-3-phosphatidyl-L-serine, change of plasma metabolite, fh14","female rats; day 14, relative to controls",1.72
same,"Arachidonic acid (C20:cis-[5,8,11,14]4), change of plasma metabolite, fh14","female rats; day 14, relative to controls",1.89
same,"Behenic acid (C22:0), change of plasma metabolite, fh14","female rats; day 14, relative to controls",1.60
same,"Cholesterol, change of plasma metabolite, fh14","female rats; day 14, relative to controls",1.64
same,"Docosahexaenoic acid (C22:cis[4,7,10,13,16,19]6), change of plasma metabolite, fh14","female rats; day 14, relative to controls",2.49
same,"Dodecanol, change of plasma metabolite, fh14","female rats; day 14, relative to controls",1.79
same,"Eicosanoic acid (C20:0), change of plasma metabolite, fh14","female rats; day 14, relative to controls",2.76
same,"Galactose, lipid fraction, change of plasma metabolite, fh14","female rats; day 14, relative to controls",1.28
same,"Glycerol, lipid fraction, change of plasma metabolite, fh14","female rats; day 14, relative to controls",7.37
same,"Glycerolphosphate, lipid fraction, change of plasma metabolite, fh14","female rats; day 14, relative to controls",1.52
same,"Heptadecanoic acid (C17:0), change of plasma metabolite, fh14","female rats; day 14, relative to controls",1.89
same,"Lignoceric acid (C24:0), change of plasma metabolite, fh14","female rats; day 14, relative to controls",1.60
same,"Linoleic acid (C18:cis[9,12]2), change of plasma metabolite, fh14","female rats; day 14, relative to controls",5.23
same,"Nervonic acid (C24:1), change of plasma metabolite, fh14","female rats; day 14, relative to controls",1.55
same,"Palmitic acid (C16:0), change of plasma metabolite, fh14","female rats; day 14, relative to controls",3.46
same,"Phosphatidylcholine (C18:0/C18:2), change of plasma metabolite, fh14","female rats; day 14, relative to controls",1.20
same,"Sphingolipids (3- and 5-Methoxysphingosine), change of plasma metabolite, fh14","female rats; day 14, relative to controls",1.77
same,"Stearic acid (C18:0), change of plasma metabolite, fh14","female rats; day 14, relative to controls",1.87
same,"Threonic acid, change of plasma metabolite, fh14","female rats; day 14, relative to controls",3.63
same,"Tricosanoic acid (C23:0), change of plasma metabolite, fh14","female rats; day 14, relative to controls",1.46
same,"gamma-Linolenic acid (C18:cis[6,9,12]3), change of plasma metabolite, fh14","female rats; day 14, relative to controls",4.53
same,"myo-Inositol-2-monophosphate, lipid fraction, change of plasma metabolite, fh14","female rats; day 14, relative to controls",3.61
same,"1,2-Dioleoyl-sn-glycero-3-phosphatidyl-L-serine, change of plasma metabolite, fh28","female rats; day 28, relative to controls",1.51
same,"Arachidonic acid (C20:cis-[5,8,11,14]4), change of plasma metabolite, fh28","female rats; day 28, relative to controls",1.50
same,"Behenic acid (C22:0), change of plasma metabolite, fh28","female rats; day 28, relative to controls",1.41
same,"Cholesterol, change of plasma metabolite, fh28","female rats; day 28, relative to controls",1.62
same,"Docosahexaenoic acid (C22:cis[4,7,10,13,16,19]6), change of plasma metabolite, fh28","female rats; day 28, relative to controls",1.57
same,"Dodecanol, change of plasma metabolite, fh28","female rats; day 28, relative to controls",1.40
same,"Eicosanoic acid (C20:0), change of plasma metabolite, fh28","female rats; day 28, relative to controls",1.98
same,"Galactose, lipid fraction, change of plasma metabolite, fh28","female rats; day 28, relative to controls",1.40
same,"Glycerol, lipid fraction, change of plasma metabolite, fh28","female rats; day 28, relative to controls",2.68
same,"Glycerolphosphate, lipid fraction, change of plasma metabolite, fh28","female rats; day 28, relative to controls",1.43
same,"Heptadecanoic acid (C17:0), change of plasma metabolite, fh28","female rats; day 28, relative to controls",1.54
same,"Lignoceric acid (C24:0), change of plasma metabolite, fh28","female rats; day 28, relative to controls",1.75
same,"Linoleic acid (C18:cis[9,12]2), change of plasma metabolite, fh28","female rats; day 28, relative to controls",2.69
same,"Nervonic acid (C24:1), change of plasma metabolite, fh28","female rats; day 28, relative to controls",1.46
same,"Palmitic acid (C16:0), change of plasma metabolite, fh28","female rats; day 28, relative to controls",1.86
same,"Phosphatidylcholine (C18:0/C18:2), change of plasma metabolite, fh28","female rats; day 28, relative to controls",1.23
same,"Sphingolipids (3- and 5-Methoxysphingosine), change of plasma metabolite, fh28","female rats; day 28, relative to controls",1.73
same,"Stearic acid (C18:0), change of plasma metabolite, fh28","female rats; day 28, relative to controls",1.65
same,"Threonic acid, change of plasma metabolite, fh28","female rats; day 28, relative to controls",4.57
same,"Tricosanoic acid (C23:0), change of plasma metabolite, fh28","female rats; day 28, relative to controls",1.45
same,"gamma-Linolenic acid (C18:cis[6,9,12]3), change of plasma metabolite, fh28","female rats; day 28, relative to controls",2.98
same,"myo-Inositol-2-monophosphate, lipid fraction, change of plasma metabolite, fh28","female rats; day 28, relative to controls",1.93
